The target of this assay is Qcl (Legionella pneumophila, UniProt O54635). Nature of the assay: biochemical.

The structures appear in SMILES notation.

The values that follow come from PMC3816012 (Structure (London, England : 1993), 2013).

Usually Kd stands for the free concentration of one partner at which half of the binding sites on the other are occupied at equilibrium, for simple one-to-one binding. A higher Kd goes with weaker binding.

Sequence of Qcl (O54635 49-191 limits assumed): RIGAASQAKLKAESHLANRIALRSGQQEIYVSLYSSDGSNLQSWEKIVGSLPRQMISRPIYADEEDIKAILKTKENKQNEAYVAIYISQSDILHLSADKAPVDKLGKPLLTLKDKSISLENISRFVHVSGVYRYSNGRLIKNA

Take `NC(=O)c1ccc[n+]([C@@H]2O[C@H](COP(=O)(O)OP(=O)(O)OC[C@H]3O[C@@H](n4cnc5c(N)ncnc54)[C@H](O)[C@@H]3O)[C@@H](O)[C@H]2O)c1` [NAD+]: the Kd is 400 to 600 µM.
